Assay results as given in patent US4358441A, “Nicotinic derivatives of glucosamine and related pharmaceutical compositions” (Laboratorio Guidotti & C. S.p.A., priority 1980, dated 1982).

Key:
[1] = system: plasma levels of free glycerol; experiment: Effect of oral administration on plasma levels of free glycerol in the empty rat; format: in vivo, rat (COBS CD (SD) BR male); settings: for Percent variations of plasma free glycerol with respect to the controls: empty rat; for Activity on free glycerol: 30 mg/kg oral; for Activity on free glycerol / Time within which the effect on free glycerol disappears: rat; for Time within which the effect on free glycerol disappears: 100 mg/kg oral
[2] = system: plasma levels of triglycerides; experiment: Effect of oral administration on plasma levels of triglycerides in the empty rat; format: in vivo, rat (COBS CD (SD) BR male); settings: for Percent variations of plasma triglycerides with respect to the controls / Percent variations of plasma triglycerides with respect to the control: empty rat; for Time within which the effect on triglycerides disappears: rat; for Percent variations of plasma triglycerides with respect to the control: Table 5, 100 mg/kg oral referred to nicotinic acid
[3] = system: plasma levels of cholesterol; experiment: Effect of oral administration on plasma levels of cholesterol in the empty rat; format: in vivo, rat (COBS CD (SD) BR male); settings: for Percent variations of plasma cholesterol with respect to the controls: 100 mg/kg oral referred to nicotinic acid; for Percent variations of plasma cholesterol with respect to the controls / Percent variations of plasma cholesterol with respect to the control: empty rat; for Lowering of cholesterolemy: 100 mg/kg oral, rat; for Percent variations of plasma cholesterol with respect to the control: Table 5, 100 mg/kg oral referred to nicotinic acid
plasma levels of FFA = experiment: Effect of oral administration on plasma levels of FFA in the empty rat; settings: for Percent variations of plasma FFA with respect to the controls / Percent variations of plasma FFA with respect to the control: empty rat; for Time within which the effect on FFA disappears: 100 mg/kg oral, rat; for Percent variations of plasma FFA with respect to the control: Table 5, 100 mg/kg oral referred to nicotinic acid
Solubility = format: physicochemical
[4] = 30 mg/kg oral referred to nicotinic acid, 1 h
[5] = 30 mg/kg oral referred to nicotinic acid, 2 h
[6] = 30 mg/kg oral referred to nicotinic acid, 4 h
[7] = 30 mg/kg oral referred to nicotinic acid, 6 h
[8] = 100 mg/kg oral referred to nicotinic acid, 2 h
[9] = 100 mg/kg oral referred to nicotinic acid, 4 h
[10] = 100 mg/kg oral referred to nicotinic acid, 6 h
[11] = 100 mg/kg oral referred to nicotinic acid, 8 h
[12] = 100 mg/kg oral referred to nicotinic acid, 10 h
[13] = 100 mg/kg oral referred to nicotinic acid, 16 h
[14] = 100 mg/kg oral referred to nicotinic acid, 24 h

SMILES: O=C(OCC(COC(=O)c1cccnc1)(COC(=O)c1cccnc1)COC(=O)c1cccnc1)c1cccnc1 [NICERITROLE, pentaerithritol-tetranicotinate]
- Percent variations of plasma free glycerol with respect to the controls [1, 4]: -77%
- Percent variations of plasma free glycerol with respect to the controls [1, 5]: -9%
- Percent variations of plasma free glycerol with respect to the controls [1, 6]: -4%
- Percent variations of plasma free glycerol with respect to the controls [1, 7]: +11%
- Activity on free glycerol [1]: active only after 1 hour
- Percent variations of plasma free glycerol with respect to the controls [1, 8]: -61%
- Percent variations of plasma free glycerol with respect to the controls [1, 9]: -34%
- Percent variations of plasma free glycerol with respect to the controls [1, 10]: +17%
- Percent variations of plasma free glycerol with respect to the controls [1, 11]: +11%
- Percent variations of plasma free glycerol with respect to the controls [1, 12]: +4%
- Percent variations of plasma free glycerol with respect to the controls [1, 13]: +13%
- Percent variations of plasma free glycerol with respect to the controls [1, 14]: +3%
- Time within which the effect on free glycerol disappears [1]: within the fourth hour
- Percent variations of plasma triglycerides with respect to the controls [2, 4]: -45%
- Percent variations of plasma triglycerides with respect to the controls [2, 5]: -27%
- Percent variations of plasma triglycerides with respect to the controls [2, 6]: +13%
- Percent variations of plasma triglycerides with respect to the controls [2, 7]: -6%
- Time within which the effect on triglycerides disappears ([2]; 30 mg/kg oral): ≤ 2 h
- Percent variations of plasma triglycerides with respect to the controls [2, 8]: -41%
- Percent variations of plasma triglycerides with respect to the controls [2, 9]: -56%
- Percent variations of plasma triglycerides with respect to the controls [2, 10]: -63%
- Percent variations of plasma triglycerides with respect to the controls [2, 11]: -30%
- Percent variations of plasma triglycerides with respect to the controls [2, 12]: +9%
- Percent variations of plasma triglycerides with respect to the controls [2, 13]: -3%
- Percent variations of plasma triglycerides with respect to the controls [2, 14]: +5%
- Time within which the effect on triglycerides disappears ([2]; 100 mg/kg oral): within the eighth hour
- Percent variations of plasma cholesterol with respect to the controls ([3]; 4 h): -2%
- Percent variations of plasma cholesterol with respect to the controls ([3]; 6 h): -7%
- Percent variations of plasma cholesterol with respect to the controls ([3]; 8 h): 0%
- Percent variations of plasma cholesterol with respect to the controls ([3]; 10 h): -10%
- Percent variations of plasma cholesterol with respect to the controls ([3]; 16 h): -17%
- Percent variations of plasma cholesterol with respect to the controls ([3]; 24 h): -14%
- Lowering of cholesterolemy [3]: never significant
- Percent variations of plasma FFA with respect to the controls (plasma levels of FFA; [4]): -87%
- Percent variations of plasma FFA with respect to the controls (plasma levels of FFA; [5]): -18%
- Percent variations of plasma FFA with respect to the controls (plasma levels of FFA; [6]): +9%
- Percent variations of plasma FFA with respect to the controls (plasma levels of FFA; [7]): +8%
- Percent variations of plasma FFA with respect to the controls (plasma levels of FFA; [8]): -70%
- Percent variations of plasma FFA with respect to the controls (plasma levels of FFA; [9]): -43%
- Percent variations of plasma FFA with respect to the controls (plasma levels of FFA; [10]): +27%
- Percent variations of plasma FFA with respect to the controls (plasma levels of FFA; [11]): +10%
- Percent variations of plasma FFA with respect to the controls (plasma levels of FFA; [12]): -2%
- Percent variations of plasma FFA with respect to the controls (plasma levels of FFA; [13]): +6%
- Percent variations of plasma FFA with respect to the controls (plasma levels of FFA; [14]): -8%
- Time within which the effect on FFA disappears (plasma levels of FFA): ≤ 6 h

SMILES: O=C(OC[C@H](OC(=O)c1cccnc1)[C@@H](OC(=O)c1cccnc1)[C@H](OC(=O)c1cccnc1)[C@@H](COC(=O)c1cccnc1)OC(=O)c1cccnc1)c1cccnc1 [SORBINICATE, D-glucitol hexanicotinate]
- Percent variations of plasma free glycerol with respect to the controls [1, 4]: -59%
- Percent variations of plasma free glycerol with respect to the controls [1, 5]: -27%
- Percent variations of plasma free glycerol with respect to the controls [1, 6]: +2%
- Percent variations of plasma free glycerol with respect to the controls [1, 7]: -7%
- Activity on free glycerol [1]: active only after 1 hour
- Percent variations of plasma free glycerol with respect to the controls [1, 8]: -70%
- Percent variations of plasma free glycerol with respect to the controls [1, 9]: -3%
- Percent variations of plasma free glycerol with respect to the controls [1, 10]: +3%
- Percent variations of plasma free glycerol with respect to the controls [1, 11]: +20%
- Percent variations of plasma free glycerol with respect to the controls [1, 12]: +8%
- Percent variations of plasma free glycerol with respect to the controls [1, 13]: -1%
- Percent variations of plasma free glycerol with respect to the controls [1, 14]: -1%
- Time within which the effect on free glycerol disappears [1]: within the fourth hour
- Percent variations of plasma triglycerides with respect to the controls [2, 4]: -42%
- Percent variations of plasma triglycerides with respect to the controls [2, 5]: -16%
- Percent variations of plasma triglycerides with respect to the controls [2, 6]: +6%
- Percent variations of plasma triglycerides with respect to the controls [2, 7]: -3%
- Time within which the effect on triglycerides disappears ([2]; 30 mg/kg oral): ≤ 2 h
- Percent variations of plasma triglycerides with respect to the controls [2, 8]: -61%
- Percent variations of plasma triglycerides with respect to the controls [2, 9]: -46%
- Percent variations of plasma triglycerides with respect to the controls [2, 10]: -55%
- Percent variations of plasma triglycerides with respect to the controls [2, 11]: -5%
- Percent variations of plasma triglycerides with respect to the controls [2, 12]: +9%
- Percent variations of plasma triglycerides with respect to the controls [2, 13]: -3%
- Percent variations of plasma triglycerides with respect to the controls [2, 14]: -25%
- Time within which the effect on triglycerides disappears ([2]; 100 mg/kg oral): within the eighth hour
- Percent variations of plasma cholesterol with respect to the controls ([3]; 4 h): -14%
- Percent variations of plasma cholesterol with respect to the controls ([3]; 6 h): -15%
- Percent variations of plasma cholesterol with respect to the controls ([3]; 8 h): -7%
- Percent variations of plasma cholesterol with respect to the controls ([3]; 10 h): -15%
- Percent variations of plasma cholesterol with respect to the controls ([3]; 16 h): -13%
- Percent variations of plasma cholesterol with respect to the controls ([3]; 24 h): -9%
- Lowering of cholesterolemy [3]: at the tenth hour only
- Percent variations of plasma FFA with respect to the controls (plasma levels of FFA; [4]): -56%
- Percent variations of plasma FFA with respect to the controls (plasma levels of FFA; [5]): -14%
- Percent variations of plasma FFA with respect to the controls (plasma levels of FFA; [6]): +13%
- Percent variations of plasma FFA with respect to the controls (plasma levels of FFA; [7]): -9%
- Percent variations of plasma FFA with respect to the controls (plasma levels of FFA; [8]): -72%
- Percent variations of plasma FFA with respect to the controls (plasma levels of FFA; [9]): -1%
- Percent variations of plasma FFA with respect to the controls (plasma levels of FFA; [10]): +6%
- Percent variations of plasma FFA with respect to the controls (plasma levels of FFA; [11]): +4%
- Percent variations of plasma FFA with respect to the controls (plasma levels of FFA; [12]): -5%
- Percent variations of plasma FFA with respect to the controls (plasma levels of FFA; [13]): +6%
- Percent variations of plasma FFA with respect to the controls (plasma levels of FFA; [14]): +2%
- Time within which the effect on FFA disappears (plasma levels of FFA): ≤ 4 h

SMILES: N[C@H]1C(OC(=O)c2cccnc2)O[C@H](COC(=O)c2cccnc2)[C@@H](OC(=O)c2cccnc2)[C@@H]1OC(=O)c1cccnc1 (some centres unmarked) [glucosamine tetranicotinate, Glucosamine tetranicotinate]
- Percent variations of plasma triglycerides with respect to the control ([2]; 2 h): -54%
- Percent variations of plasma triglycerides with respect to the control ([2]; 4 h): -53%
- Percent variations of plasma triglycerides with respect to the control ([2]; 8 h): -82%
- Percent variations of plasma cholesterol with respect to the control ([3]; 4 h): -16%
- Percent variations of plasma cholesterol with respect to the control ([3]; 8 h): -26%
- Percent variations of plasma cholesterol with respect to the control ([3]; 24 h): -59%
- Solubility (Solubility): soluble in the common organic solvents and in acid solutions
- Percent variations of plasma FFA with respect to the control (plasma levels of FFA; 2 h): -70%
- Percent variations of plasma FFA with respect to the control (plasma levels of FFA; 4 h): -48%
- Percent variations of plasma FFA with respect to the control (plasma levels of FFA; 8 h): -65%

SMILES: O=C(N[C@H]1[C@@H](OC(=O)c2cccnc2)O[C@H](COC(=O)c2cccnc2)[C@@H](OC(=O)c2cccnc2)[C@@H]1OC(=O)c1cccnc1)c1cccnc1 [α, α-N-nicotinoyl-glucosamine tetranicotinate]
- Percent variations of plasma triglycerides with respect to the control ([2]; 2 h): -56%
- Percent variations of plasma triglycerides with respect to the control ([2]; 4 h): -68%
- Percent variations of plasma triglycerides with respect to the control ([2]; 8 h): -47%
- Percent variations of plasma cholesterol with respect to the control ([3]; 4 h): -4%
- Percent variations of plasma cholesterol with respect to the control ([3]; 8 h): -12%
- Percent variations of plasma cholesterol with respect to the control ([3]; 24 h): -44%
- Solubility (Solubility): soluble in the common non-polar organic solvents
- Percent variations of plasma FFA with respect to the control (plasma levels of FFA; 2 h): -64%
- Percent variations of plasma FFA with respect to the control (plasma levels of FFA; 4 h): -13%
- Percent variations of plasma FFA with respect to the control (plasma levels of FFA; 8 h): -7%
